Experimental data from US20240228476A1, “INHIBITORS OF PROTEIN TYROSINE PHOSPHATASE, COMPOSITIONS, AND METHODS OF USE” (BRISTOL-MYERS SQUIBB COMPANY, priority 2022, published 2024).

How the values were obtained:
PTPN2 [1] = biological target: T1, PTPN2 (Homo sapiens, UniProt P17706); assay: PTPN2 biochemical assay (PhosphoSens, substrate AQT0264); conditions: PhosphoSens substrate AQT0264 20 μM, room temperature; read-out: PTPN2 BCHEM IC50
T1 sequence (P17706 1-415): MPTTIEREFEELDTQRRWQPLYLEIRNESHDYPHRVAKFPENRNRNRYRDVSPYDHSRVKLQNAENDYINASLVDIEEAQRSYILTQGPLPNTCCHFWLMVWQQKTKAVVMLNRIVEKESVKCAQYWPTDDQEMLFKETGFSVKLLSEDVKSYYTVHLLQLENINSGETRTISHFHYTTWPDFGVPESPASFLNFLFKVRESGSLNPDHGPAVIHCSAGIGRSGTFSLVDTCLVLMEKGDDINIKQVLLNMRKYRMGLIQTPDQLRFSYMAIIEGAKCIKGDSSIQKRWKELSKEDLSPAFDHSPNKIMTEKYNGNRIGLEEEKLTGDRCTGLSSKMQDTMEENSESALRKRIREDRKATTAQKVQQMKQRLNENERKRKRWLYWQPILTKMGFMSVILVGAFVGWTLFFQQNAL
Protocol: A PhosphoSens® kinase assay was performed as described by the vendor (AssayQuant Technologies, Marlborough, MA). Briefly, 1000× solutions of compounds were prepared in DMSO via serial dilution of the 10 mM DMSO stocks using 3-fold intervals in a 384-well reagent plate. 50 nL of the compound dilution series was then added to the corresponding wells of a 384-well assay plate. 40 mL of 1.25× substrate (AQT0264) in 1× assay buffer (50 mM HEPES pH 7.5, 500 μM EGTA, […] MgCl2, 0.01% Brij-35, 1% Glycerol, 1 mM DTT, and 0.2 mg/mL BSA) was transferred to each well of the assay plate to achieve a final substrate concentration of 20 μM. Finally, […] of 5×PTPN2 enzyme stock was added to each well of the assay plate for a final enzyme concentration of […]. Reaction progress curves were collected by sampling fluorescence intensity at the excitation wavelength 360 nm (λex360) and emission wavelength 480 nm (λem480) every 71 seconds for one hour using a Synergy H4 plate reader (BioTek Instruments/Agilent Technologies, Winooski, VT) at room temperature.
(§1) For IC50 data, High DDT concentration and/or DiFMUP substrate assays were used; a skilled artisan may use either assay.

phospho-STAT1 (Tyr701) = assay: Phospho-STAT1 (Tyr701) HTRF assay in B16-F10 cells; assay type: cell-based; conditions: mouse IFN-gamma 100 ng/ml, 1 hour, read-out: pSTAT1 HTRF B16 EC50
Protocol: B16-F10 cells (ATCC, Manassas, VA, #CRL-6475) were cultured in DMEM growth medium (ThermoFisher Scientific, Waltham, MA, #11995-040) supplemented with 10% heat inactivated FBS (ThermoFisher Scientific, #16140-071) and 1% pen/strep (ThermoFisher Scientific, #15140-122). The cells were seeded into a white opaque 384-well tissue culture treated microplate (PerkinElmer, Waltham, MA, #6007688) at a density of 10,000 cells/well in 20 uL total volume and incubated overnight at 37 C and 5% CO2. 30 nL of compounds dissolved in DMSO were then transferred from a source plate into target wells with the Echo650 acoustic liquid handler (Beckman Coulter, Indianapolis, IN). Negative control wells received 30 nL of DMSO only (0.15% final concentration). Plates were returned to the incubator for 1 hour and then cells treated with either 5 uL of growth medium or 5 uL of growth medium containing 500 ng/ml of recombinant mouse IFN-gamma protein (R&D Systems, Minneapolis, MN, #485-MI/CF, 100 ng/ml final concentration) using the Assist automated pipetting platform (INTEGRA Biosciences, Hudson, NH). Plates were incubated at 37 C for 1 hour and assayed for phosphorylated STAT1 protein levels with the phospho-STAT1 (Tyr701) HTRF kit (Cisbio, Bedford, MA, #63ADK026PEH) according to manufacturer's instructions. HTRF signal intensity was collected with the En Vision 2105 plate reader (PerkinElmer) 24 hours later and analyzed with the Dotmatics software platform to calculate compound IC50 values.

B16-F10 cells = assay: Cell proliferation assay (CellTiter-Glo) in B16-F10 cells with IFN-gamma; assay type: cell-based; conditions: 120 h, mouse IFN-gamma 10 ng/mL, read-out: PTPN2 Prolif 5d B16F10 EC50
Protocol: B16-F10 cells (ATCC, Manassas, VA, #CRL-6475) were cultured in DMEM growth medium (ThermoFisher Scientific, Waltham, MA, #11995-040) supplemented with 10% heat inactivated FBS (ThermoFisher Scientific, #16140-071) and 1% pen/strep (ThermoFisher Scientific, #15140-122). The cells were seeded into two white opaque 384-well tissue culture treated microplates (PerkinElmer, Waltham, MA, #6007688) at a density of 100 cells/well in 20 uL total volume and incubated overnight at 37 C and 5% CO2. 30 nL of compounds dissolved in DMSO were then transferred from a source plate into target wells with the Echo650 acoustic liquid handler (Beckman Coulter, Indianapolis, IN). Negative control wells received 30 nL of DMSO only (0.15% final concentration). Plates were returned to the incubator for 1 hour and then cells treated with either 5 uL of growth medium or 5 uL of growth medium containing 50 ng/ml of recombinant mouse IFN-gamma protein (R&D Systems, Minneapolis, MN, #485-MI/CF, 10 ng/mL final concentration) using the Assist automated pipetting platform (INTEGRA Biosciences, Hudson, NH). Plates were incubated at 37 C for 4 days and cell proliferation assayed with the CellTiter-Glo reagent (Promega, Madison, WI, #G7573, 25 uL per well). […] Off-target compound mediated cytotoxicity was identified by checking for growth inhibition in the absence of IFNg.

PTPN2 [2] = biological target: T1, PTPN2; assay: Phosphatase activity assay using DiFMUP as substrate; assay type: biochemical; set-up: purchased MilliporeSigma SRP5075; conditions: 10 mM DTT, PTPN2 0.15 nM, room temperature, read-out: PTPN2 BCHEM DIFMUP IC50
Protocol: The PTPN2 biochemical assay was performed as follows, a 5× stock solution of human PTPN2 (SRP5075, MilliporeSigma, Burlington, MA) and a 1.25× stock solution of DiFMUP (D6567, ThermoFisher Scientific, Waltham, MA), were prepared in 1× reaction buffer consisting of 50 mM HEPES, pH 7.4, 1 mM EDTA, 150 mM NaCl, 0.2 mg/mL BSA, 100 U/mL catalase and 10 mM DTT. […] of the DiFMUP substrate solution, for a final concentration of […] DiFMUP substrate, was added to a Corning 3574 384-well, white, non-binding surface microtiter plate containing […] of serially diluted test compounds prepared in DMSO. The reactions were started with the addition of […] of the enzyme solution, for a final PTPN2 concentration of 0.15 nM, and monitored every 105 seconds for 60 minutes at λEX 360/λEM 460 in a BioTek Synergy HTX plate reader (Agilent Technologies, Santa Clara, CA) at room temperature. The initial linear portions of the progress curves were fit according to a linear equation to yield the slopes and converted to % inhibition based on a value of 100% activity for the no inhibitor treated control. IC50 values of each compound were obtained by fitting the % inhibition-compound concentration curves using Dotmatics software (Dotmatics, Bishops Stortford, Hertfordshire, England)
as §1

SMILES | IC50 (PTPN2 [1]) | EC50 (phospho-STAT1 (Tyr701)) | EC50 (B16-F10 cells) | IC50 (PTPN2 [2])
N#Cc1cnc(NCc2cc(O)c(N3CC(=O)NS3(=O)=O)c(F)c2)nc1 [EXAMPLE 9, 2-[[3-fluoro-5-hydroxy-4-(1,1,4-trioxo-1,2,5-thiadiazolidin-2-yl)phenyl]methylamino]pyrimidine-5-carbonitrile] | 30 nM | 490 nM | 1290 nM | 210 nM
O=C1CN(c2c(O)cc(CNc3ccc(C4CC4)nc3)cc2F)S(=O)(=O)N1 [EXAMPLE 10, 5-[4-[[(6-cyclopropyl-3-pyridyl)amino]methyl]-2-fluoro-6-hydroxy-phenyl]-1,1-dioxo-1,2,5-thiadiazolidin-3-one] | 10 nM | 650 nM | 410 nM | 100 nM
O=C1CN(c2c(O)cc(CNc3cncc(-c4ccccc4)c3)cc2F)S(=O)(=O)N1 [EXAMPLE 12, 5-[2-fluoro-6-hydroxy-4-[[(5-phenyl-3-pyridyl)amino]methyl]phenyl]-1,1-dioxo-1,2,5-thiadiazolidin-3-one] | 20 nM | > 15000 nM | > 15000 nM | 100 nM
CC(C)c1cncc(NCc2cc(O)c(N3CC(=O)NS3(=O)=O)c(F)c2)c1 [EXAMPLE 13, 5-[2-fluoro-6-hydroxy-4-[[(5-isopropyl-3-pyridyl)amino]methyl]phenyl]-1,1-dioxo-1,2,5-thiadiazolidin-3-one] | 10 nM | 930 nM | 1370 nM | 50 nM
CCN(Cc1cc(O)c(N2CC(=O)NS2(=O)=O)c(F)c1)c1nc(C)cc(-c2ccccc2C#N)n1 [EXAMPLE 14, 2-[2-[ethyl-[[3-fluoro-5-hydroxy-4-(1,1,4-trioxo-1,2,5-thiadiazolidin-2-yl)phenyl]methyl]amino]-6-methyl-pyrimidin-4-yl]benzonitrile] | 210 nM | > 15000 nM | > 15000 nM | 490 nM
Cc1c(NCc2cc(O)c(N3CC(=O)NS3(=O)=O)c(F)c2)ccnc1-c1ccc(C(C)(C)C)cc1 [EXAMPLE 15, 5-[4-[[[2-(4-tert-butylphenyl)-3-methyl-4-pyridyl]amino]methyl]-2-fluoro-6-hydroxy-phenyl]-1,1-dioxo-1,2,5-thiadiazolidin-3-one] | 30 nM | > 15000 nM | > 15000 nM | 30 nM

Now from value to compound:

IC50 (PTPN2 [1]) | EC50 (phospho-STAT1 (Tyr701)) | EC50 (B16-F10 cells) | IC50 (PTPN2 [2]) | SMILES
1 nM | 690 nM | 1730 nM | 30 nM | Cc1cncc(NCc2cc(O)c(N3CC(=O)NS3(=O)=O)c(F)c2)n1 [EXAMPLE 16, 5-[2-fluoro-6-hydroxy-4-[[(6-methylpyrazin-2-yl)amino]methyl]phenyl]-1,1-dioxo-1,2,5-thiadiazolidin-3-one]
20 nM | 1880 nM | 2210 nM | 50 nM | Cc1cc(NCc2cc(O)c(N3CC(=O)NS3(=O)=O)c(F)c2)nc(C)n1 [EXAMPLE 17, 5-[4-[[(2,6-dimethylpyrimidin-4-yl)amino]methyl]-2-fluoro-6-hydroxy-phenyl]-1,1-dioxo-1,2,5-thiadiazolidin-3-one]
50 nM | > 15000 nM | > 15000 nM | 110 nM | Cc1cnc(C)c(NCc2cc(O)c(N3CC(=O)NS3(=O)=O)c(F)c2)n1 [EXAMPLE 18, 5-[4-[[(3,6-dimethylpyrazin-2-yl)amino]methyl]-2-fluoro-6-hydroxy-phenyl]-1,1-dioxo-1,2,5-thiadiazolidin-3-one]
10 nM | 370 nM | 1240 nM | 50 nM | Cc1ncc(NCc2cc(O)c(N3CC(=O)NS3(=O)=O)c(F)c2)nc1C [EXAMPLE 19, 5-[4-[[(5,6-dimethylpyrazin-2-yl)amino]methyl]-2-fluoro-6-hydroxy-phenyl]-1,1-dioxo-1,2,5-thiadiazolidin-3-one]
70 nM | > 15000 nM | > 15000 nM | 11100 nM | COc1ncc(C)nc1NCc1cc(O)c(N2CC(=O)NS2(=O)=O)c(F)c1 [EXAMPLE 20, 5-[2-fluoro-6-hydroxy-4-[[(3-methoxy-6-methyl-pyrazin-2-yl)amino]methyl]phenyl]-1,1-dioxo-1,2,5-thiadiazolidin-3-one]
